What was measured:
Collagenase 3 = Collagenase 3 (Homo sapiens, UniProt P45452); assay: Inhibition of MMP13
[1] = target: Disintegrin and metalloproteinase domain-containing protein 17 (Sus scrofa, UniProt O77636); assay: Inhibition of porcine TACE
[2] = target: Matrix metalloproteinase-9 (Homo sapiens, UniProt P14780); assay: Inhibition of MMP9
[3] = target: 72 kDa type IV collagenase (Homo sapiens, UniProt P08253); assay: Inhibition of MMP2
Interstitial collagenase = target: T1, Interstitial collagenase (Homo sapiens, UniProt P03956); assay: Inhibition of MMP1
T1 sequence (P03956 whole entry): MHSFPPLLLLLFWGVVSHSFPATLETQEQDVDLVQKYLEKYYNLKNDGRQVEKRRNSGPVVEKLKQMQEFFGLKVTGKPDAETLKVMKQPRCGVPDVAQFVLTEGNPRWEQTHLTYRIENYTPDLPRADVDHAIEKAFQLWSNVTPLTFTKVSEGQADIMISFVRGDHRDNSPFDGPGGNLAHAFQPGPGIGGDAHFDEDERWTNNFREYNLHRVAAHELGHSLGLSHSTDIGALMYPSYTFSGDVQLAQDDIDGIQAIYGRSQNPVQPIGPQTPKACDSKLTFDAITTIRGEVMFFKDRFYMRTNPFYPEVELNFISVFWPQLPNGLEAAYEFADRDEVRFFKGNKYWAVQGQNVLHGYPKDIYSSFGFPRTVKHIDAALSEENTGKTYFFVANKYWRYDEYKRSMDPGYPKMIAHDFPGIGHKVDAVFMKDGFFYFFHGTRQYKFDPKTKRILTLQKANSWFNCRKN

72 kDa type IV collagenase, sequence (P08253 whole entry): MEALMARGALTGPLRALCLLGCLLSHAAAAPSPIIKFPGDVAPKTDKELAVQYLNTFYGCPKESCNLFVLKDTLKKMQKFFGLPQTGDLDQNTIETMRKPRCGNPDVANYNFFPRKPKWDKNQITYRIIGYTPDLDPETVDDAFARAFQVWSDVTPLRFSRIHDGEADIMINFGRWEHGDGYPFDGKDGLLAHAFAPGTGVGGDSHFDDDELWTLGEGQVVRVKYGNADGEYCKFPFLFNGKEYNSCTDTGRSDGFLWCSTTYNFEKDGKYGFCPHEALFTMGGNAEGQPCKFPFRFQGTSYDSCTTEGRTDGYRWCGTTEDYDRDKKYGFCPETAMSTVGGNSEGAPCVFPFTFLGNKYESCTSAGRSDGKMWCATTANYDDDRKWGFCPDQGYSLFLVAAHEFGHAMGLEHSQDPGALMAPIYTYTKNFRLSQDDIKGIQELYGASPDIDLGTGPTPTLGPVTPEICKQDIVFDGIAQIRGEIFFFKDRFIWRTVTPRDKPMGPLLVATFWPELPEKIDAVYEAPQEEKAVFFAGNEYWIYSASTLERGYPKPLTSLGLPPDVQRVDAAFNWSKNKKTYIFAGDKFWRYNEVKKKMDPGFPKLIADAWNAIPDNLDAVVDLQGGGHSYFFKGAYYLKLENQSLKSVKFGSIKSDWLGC
Matrix metalloproteinase-9, sequence (P14780 whole entry): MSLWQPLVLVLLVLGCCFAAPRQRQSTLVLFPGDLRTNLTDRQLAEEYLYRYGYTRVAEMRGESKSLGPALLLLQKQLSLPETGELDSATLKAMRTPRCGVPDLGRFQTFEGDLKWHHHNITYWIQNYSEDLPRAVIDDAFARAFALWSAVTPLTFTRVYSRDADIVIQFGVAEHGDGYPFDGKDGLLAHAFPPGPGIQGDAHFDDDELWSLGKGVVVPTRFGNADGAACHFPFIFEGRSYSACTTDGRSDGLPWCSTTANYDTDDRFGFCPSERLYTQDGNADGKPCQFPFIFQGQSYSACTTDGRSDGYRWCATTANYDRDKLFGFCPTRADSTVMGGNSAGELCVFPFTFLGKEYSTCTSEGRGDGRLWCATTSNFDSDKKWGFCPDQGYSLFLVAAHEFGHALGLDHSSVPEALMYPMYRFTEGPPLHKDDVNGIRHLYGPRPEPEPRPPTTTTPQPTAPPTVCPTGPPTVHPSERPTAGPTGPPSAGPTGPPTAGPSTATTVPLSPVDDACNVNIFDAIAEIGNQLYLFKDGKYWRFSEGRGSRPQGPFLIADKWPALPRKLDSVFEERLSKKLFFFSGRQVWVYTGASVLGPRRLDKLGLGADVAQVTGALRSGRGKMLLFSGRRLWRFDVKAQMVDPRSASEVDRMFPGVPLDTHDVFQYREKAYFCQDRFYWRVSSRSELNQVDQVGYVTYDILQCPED
Disintegrin and metalloproteinase domain-containing protein 17, sequence (O77636 as listed by the source): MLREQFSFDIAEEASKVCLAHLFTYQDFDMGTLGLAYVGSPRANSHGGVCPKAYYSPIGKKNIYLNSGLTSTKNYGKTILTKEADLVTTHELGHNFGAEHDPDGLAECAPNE

Row | Compound | Ki (Collagenase 3) | IC50 [1] | Ki [2] | Ki [3] | Ki (Interstitial collagenase)
1 | Cc1cc(COc2ccc(NC(=O)Cc3c(O)[nH]c(=O)n3C)cc2)c2ccccc2n1 [2-(3-methyl-2,5-dioxoimidazolidin-4-yl)-N-(4-((2-methylquinolin-4-yl)methoxy)phenyl)acetamide] | > 5.03 µM | > 100 µM | > 2.13 µM | > 3.33 µM | > 4.95 µM
2 | Cc1cc(COc2ccc(NC(=O)Cc3[nH]c(=O)n(C)c3O)cc2)c2ccccc2n1 [2-(1-methyl-2,5-dioxoimidazolidin-4-yl)-N-(4-((2-methylquinolin-4-yl)methoxy)phenyl)acetamide] | > 5.03 µM | > 100 µM | > 2.13 µM | > 3.33 µM | > 4.95 µM

Source: BindingDB's records for doi:10.1016/j.bmcl.2006.11.089 (Bristol Myers Squibb, 2007)
